Measurements: patent US11292803B2, “Bioreducible N-oxide-based probes for imaging of hypoxia” (THE BOARD OF TRUSTEES OF THE UNIVERSITY OF ILLINOIS, priority 2018, dated 2022)

Tests used:
[1] = Stability in human plasma; assay type: in vitro ADME; details: 10 μM solution supplemented with human plasma, 37° C., 3 hours
Experimental: FIG. 12. Fluorescence intensity (Ex.=670 nm) of HyP-1 (2 μM) at the indicated time points during incubation in 0.1 M potassium phosphate buffer (pH 7.4) supplemented with human plasma (20% v/v) at 37° C. for 3 h.
(§1) In addition to Fe(II), the response of HyP-1 to a variety of alkali, alkaline earth and transition metals was also determined. […] To further evaluate the stability of HyP-1, a 10 μM solution of the probe was exposed to ambient light and temperature for up to 5 days. Additionally, a 10 μM solution of HyP-1 supplemented with human plasma was incubated at 37° C. for 3 hours. […] As mentioned previously, a major limitation of 2-nitroimidazole-based hypoxia probes is their susceptibility to oxygen-independent reduction via two-electron processes, such as by bacterial nitroreductases. […] Finally, the photostability of both HyP-1 and red-HyP-1 was evaluated via continuous PA image acquisition at 770 nm over the course of 1 hour.

E. coli cell lysates = assay: Incubation with bacterial cell lysates; assay type: biochemical; details: 37° C., 2 h
Experimental: FIG. 15. […] For the nitroreductase experiment, HyP-1 (2 μM) was incubated in the presence of nitroreductase (0.5 μg/mL) and NADH (100 μM) in 0.1 M potassium phosphate buffer (pH 7.4) at 37° C. for 2 h. For the bacterial experiment, bacteria were grown overnight, and cells were lysed via sonication. The suspension was centrifuged at 4000 rpm for 10 min, and the supernatant was removed. HyP-1 (2 μM) was incubated with cell lysate solution (1 mL) at 37° C. for 2 h.
as §1

[2] = tested on: 4T1 murine mammary carcinoma cells; assay: Ratiometric fluorescence microscopy in living cells; assay type: cell-based; details: 4T1 cells, epifluorescence microscope Cy7/Cy5, after 6 hours
Experimental: After establishing excellent selectivity and responsiveness to hypoxic conditions in vitro, the performance of HyP-1 in living cells was evaluated before moving to in vivo studies. 4T1 murine mammary carcinoma cells were treated with a […] solution of HyP-1 and incubated at 37° C. either in a standard atmosphere containing 20% oxygen (normoxic conditions), or in an airtight chamber containing <0.1% oxygen (hypoxic conditions). Imaging was performed at 2, 4 and 6 hours using an epifluorescence microscope equipped with Cy5 and Cy7 filter sets to visualize HyP-1 and red-HyP-1, respectively (FIG. 5a).
Authenticated 4T1 cells were purchased from ATCC. Cells were grown in RPMI 1640 medium supplemented with 10% fetal bovine serum. Cells were cultured at 37° C. in 5% CO2 and 20% 02 for normoxic conditions. Hypoxic cell culture was performed by incubating cells in a sealed container with a Mitsubishi AnaeroPack™ anaerobic gas generator. Hypoxic conditions were verified with the use of a Mitsubishi RT Anaero-Indicator.
For fluorescence microscopy, cells were plated in 4-well chamber slides at an initial density of 1×10^4 cells/mL and allowed to grow until 60-80% confluent (approximately 6 days). Media was removed and cells were washed with PBS. […] Images were obtained using Cy5 and Cy7 filter cubes and analysed using ImageJ software (Version 1.50i).

4T1 tumour allografts = assay: In vivo PA imaging of hypoxic tumour model; parameters: species or system BALB/c mice; details: tail vein injection 0.3 mg/kg; 770 nm
Experimental: Next, attention was turned to the application of HyP-1 for hypoxia detection using PA imaging. HyP-1 (50 μL, 0.3 mg/kg) was administered to tumour-bearing mice intravenously via tail vein injection, and PA images of both the tumour-bearing and control flanks were acquired at 1, 3 and 5 hours following injection. […] The 3D-reconstructions of the PA images enabled visualization of specific areas within the tumour where signal was highest, a significant improvement compared to the minimally resolved signal obtained using fluorescence imaging (FIG. 6b). It was hypothesized that these areas of high intensity correlate with the highest concentrations of red-HyP-1, and therefore with regions of most severe hypoxia.
All in vivo imaging experiments were performed with the approval of the Institutional Animal Care and Use Committee of the University of Illinois at Urbana-Champaign, following the principles outlined by the American Physiological Society on research animal use. […]
Prior to imaging, hair was removed from the lower body half by shaving and treating with a topical hair removal cream. […] Data was analysed using OsiriX software. […] ROIs of equal area were drawn to include all visible signal in the image, and mean PA signal in each ROI was recorded. Change in PA signal was calculated by subtracting signal from images taken prior to injection from those at given time points.

ischemic hindlimb tissue = assay: In vivo fluorescence imaging of hindlimb ischemia model; parameters: species or system BALB/c mice; details: intramuscular 50 μL, 50 μM; over 1 hour
Experimental: To visualize the response of HyP-1 in a model of rapidly developing hypoxia, a murine hindlimb ischemia model of peripheral artery disease was employed. Ischemia was induced in the right hindlimb of BALB/c mice via ligation of the femoral artery. […] After a 1-hour recovery period, HyP-1 (50 μL, 50 μM) was administered via intramuscular injection into both hindlimbs of the mouse. To visualize the time-dependent response of HyP-1 in the ischemic and non-ischemic tissue, ratiometric fluorescence imaging was performed over the course of 1 hour immediately following injection. […]
All in vivo imaging experiments were performed with the approval of the Institutional Animal Care and Use Committee of the University of Illinois at Urbana-Champaign, following the principles outlined by the American Physiological Society on research animal use. […] Animals that underwent unsuccessful surgery as determined by laser Doppler perfusion imaging were excluded from analysis.
Images were obtained using epi-fluorescence with excitation filters of 675 and 745 and corresponding emission filters of 720 and 800, respectively. […] ROIs of equal area were drawn around signals, and the total radiant efficiency in each ROI was determined. Ratiometric signal was calculated by determining the ratio of radiant efficiency corresponding to 800 nm and 720 nm emissions.

CC[N+]([O-])(CC)c1ccc(-c2cc(-c3ccccc3)c3n2[B-](F)(F)[N+]2=C(c4ccc(OC)cc4)C=C(c4ccccc4)C2=N3)cc1 [HyP-1, 4-(5,5-difluoro-7-(4-methoxyphenyl)-1,9-diphenyl-5H-5λ^4,6λ^4-dipyrrolo[1,2-c:2′,1′-f][1,3,5,2]triazaborinin-3-yl)-N,N-diethylaniline oxide]
decomposition in human plasma [1]: no substantial decomposition
conversion to red-HyP-1 (E. coli cell lysates): minimal conversion
ratiometric fluorescence response, hypoxic versus normoxic control [2]: 1.6 fold
PA signal increase in control flank (4T1 tumour allografts): no increase
mean PA signal increase in tumour tissue (4T1 tumour allografts): 20.5 a.u.
ratiometric signal, ischemic tissue versus control (ischemic hindlimb tissue): 3 fold
